In patent US9895363B2, “Methods for modulating function of proliferating cell nuclear antigen (PCNA) and treating cancer with PCNA-targeting compounds” (University of Cincinnati, priority 2010, dated 2018):
Where two headings read alike, the source gives them in different places.

Columns and labels:
[1] = Toxicity evaluation in tumor-bearing mice; type: in vivo
Description: The therapeutic effects of PCNA-I1 were evaluated in LNCaP cells and 22Rv1 tumor models. LNCaP or 22Rv1 cells (1-2×10^6 cells in gelfoam) were implanted into the subcutis of male nude mice. From four to five days later, tumor-bearing mice were intraperitoneally injected with 10 mg/kg or 50 mg/kg of PCNA-I1. The therapy was continued at three times/week until termination of experiments. Control and treated tumor-bearing mice were monitored daily. Mouse body weight was recorded for toxicity evaluation twice a week and tumor size was measured using calipers twice a week. The experiments were terminated when mice in control groups were moribund. Additionally, to further evaluate potential liver and renal toxicity of PCNA-I1, the blood of tumor-bearing mice were sampled after the treatment with PCNA-I1 for 8 weeks.

B16 melanoma cells = test: Growth inhibition by MTT staining, B16; type: cell-based; settings: B16, 96 h, Mouse, treated four days
Description: Growth inhibitory effects of PCNA-I1 and PCNA-I2 were assessed in human cancer cell lines, mouse cancer cell lines, immortalized mouse cell lines, and human primary cell lines. Specifically, growth inhibitory effects of PCNA-I1 and PCNA-I2 were assessed using MTT staining in the following cells lines: 1) human cancer cell lines including LNCaP (androgen receptor […]), 22Rv1, DU-145, LAPC-4, and PC-3 (androgen receptor […]) prostate cancer cells; MCF-7 and T47D breast cancer cells; A375 and MDA-MB435 melanoma cells; 2) mouse cancer cell lines including TRAMP-C2RE3 prostate cancer cells, B16 and K1735 melanoma cells, UV2237 fibrosarcoma cells, and CT-26 colon cancer cells; 3) immortalized mouse lung cell lines and mouse endothelial cell lines; and 4) primary human cell lines including umbilical endothelial cells (HUVEC, PromoCell, Heidelberg, Germany), primary bone marrow mesenchymal stem cells (HuMSC, PromoCell), primary human mammary epithelial cells (HuBrEC, Lonza, Walkersville, Md.), primary human prostate epithelial cells (HuPrEC, Lonza), and primary mouse spleen lymphocytes (isolated in this laboratory), and primary mouse bone marrow stromal cells (isolated in this laboratory). […]
IC50 values were derived from growth inhibition curves. […] Inhibition of cell growth was calculated using the formula: growth inhibition (%)=(1−A570 of treated/A570 of control)×100. […]

[2] = system: HUVEC (primary human umbilical endothelial cells); test: Growth inhibition, HUVEC; type: cell-based; settings: for IC50: HUVEC
Description: Growth inhibitory effects of PCNA-I1 and PCNA-I2 were assessed in human cancer cell lines, mouse cancer cell lines, immortalized mouse cell lines, and human primary cell lines. Specifically, growth inhibitory effects of PCNA-I1 and PCNA-I2 were assessed using MTT staining in the following cells lines: 1) human cancer cell lines including LNCaP (androgen receptor […]), 22Rv1, DU-145, LAPC-4, and PC-3 (androgen receptor […]) prostate cancer cells; MCF-7 and T47D breast cancer cells; A375 and MDA-MB435 melanoma cells; 2) mouse cancer cell lines including TRAMP-C2RE3 prostate cancer cells, B16 and K1735 melanoma cells, UV2237 fibrosarcoma cells, and CT-26 colon cancer cells; 3) immortalized mouse lung cell lines and mouse endothelial cell lines; and 4) primary human cell lines including umbilical endothelial cells (HUVEC, PromoCell, Heidelberg, Germany), primary bone marrow mesenchymal stem cells (HuMSC, PromoCell), primary human mammary epithelial cells (HuBrEC, Lonza, Walkersville, Md.), primary human prostate epithelial cells (HuPrEC, Lonza), and primary mouse spleen lymphocytes (isolated in this laboratory), and primary mouse bone marrow stromal cells (isolated in this laboratory). PCNA-I1 and PCNA-I2 were either provided by the University of Cincinnati Drug Discovery Center (UC-DDC, Cincinnati, Ohio) or were purchased from Chembridge Co (San Diego, Calif.), ChemDiv (San Diego, Calif.), and/or Sigma-Aldrich (St Louis, Mo.).
Growth inhibitory effects of the compounds were assessed by MTT staining as described previously by Dong et al. in In Vitro Model for Intrinsic Drug Resistance: Effects of Protein Kinase C Activators on the Chemosensitivity of Cultured Human Colon Cancer Cells; Mol. Pharmacol. 1991; 39: 563-9. […]
IC50 values were derived from growth inhibition curves. […] Inhibition of cell growth was calculated using the formula: growth inhibition (%)=(1−A570 of treated/A570 of control)×100. […] The fluorescence intensity was measured at 530/580 (excitation/emission) in the FLUOstar Omega microplate reader (BMG LABTECH, Cary, N.C.). […]

PCNA = biological target: T1, PCNA (Homo sapiens, UniProt P12004); test: Association of PCNA with chromatin, PC-3 (NP-E/NP-R western blot); type: cell-based
T1 construct: endogenous PCNA was knocked down with transfection of PCNA-specific siRNA; endogenous in cells; host or cells: PC-3
T1 sequence (P12004 whole entry): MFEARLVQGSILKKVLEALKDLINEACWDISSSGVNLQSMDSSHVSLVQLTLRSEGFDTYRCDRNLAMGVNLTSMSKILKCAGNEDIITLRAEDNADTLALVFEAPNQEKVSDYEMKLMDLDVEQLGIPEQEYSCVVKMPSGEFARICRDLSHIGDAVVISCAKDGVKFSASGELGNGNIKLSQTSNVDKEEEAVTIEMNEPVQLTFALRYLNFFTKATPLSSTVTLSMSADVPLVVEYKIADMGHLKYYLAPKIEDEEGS
Description: The encircling of DNA and association with chromatin is required for PCNA to execute its function. Therefore, the effect of PCNA-I1 on the association of PCNA with chromatin was investigated. PC-3 cells were treated for various times with 0.5 μM of PCNA-I1 and lysed in buffer A (10 mM Tris-HCl, pH 7.4, 2.5 mM MgCl2, 0.5% NP-40, 1 mM DTT, 1 mM PMSF, and protease inhibitor cocktail). Samples were pelleted by centrifuge (1500×g, 2 min, 4° C.), and supernatant collected as NP-40-extractable ([…]) fraction. The pellet was washed in NP-40 buffer B (10 mM Tris-HCl, pH 7.4, 150 mM NaCl, 1 mM PMSF, and a protease inhibitor cocktail) to release the free form of PCNA. The cells were resuspended and digested in buffer C (10 mM Tris-HCl, pH 7.4, 10 mM NaCl, 5 mM MgCl2, 0.2 mM PMSF, and protease inhibitors) with 200 units/[…] of DNase I for 30 min at 37° C. After centrifugation at 13,000×g for 5 min at 4° C., the supernatant was collected and fractions were analyzed by western blotting. MCF-7, HeLa, and LNCaP cells were also subjected to treatment with 0.5 μM of PCNA-I1 and subjected to western blotting as previously discussed.

PC-3 cells = test: Alamar blue assay, PC-3 cells as positive control; type: cell-based, Human; settings: FIG. 2(B)
Description: The effects of PCNA-I1 on growth of tumor cells versus primary cells was also investigated. Specifically, the effects of PCNA-1I on the growth of primary cells was investigated using primary culture of mouse lymphocytes. An Alamar blue assay was performed with PC-3 cells as a positive control. Freshly prepared mouse spleen lymphocytes were stimulated for 72 H with 2 μg/mL of concanavalin A. During the last 24 H, 20 μL/well of alamar blue was added. The fluorescence intensity was measured at 530/580 (excitation/emission).

Cc1ccsc1C(=O)N/N=C/c1ccc2ccccc2c1O [PCNA-I1]
Body weight of tumor-bearing mice ([1]; 10 or 50 mg/kg i.p. every other day, up to 8 weeks): did not cause significant reduction in the body weight
Aspartate transaminase (AST or SGOT) ([1]; treatment for 8 weeks, FIG. 21): not significantly altered
Blood urea nitrogen (BUN) ([1]; treatment for 8 weeks, FIG. 21): not significantly altered
Serum alanine transaminase (ALT or SGPT) ([1]; treatment for 8 weeks, FIG. 21): not significantly altered
IC50 (B16 melanoma cells): 350 nM
Growth stimulation, HUVEC ([2]; FIG. 2(C)): Moderate growth stimulation
IC50 ([2]; Human, Blood Vessel, normal cells, mean of three experiments, read-out: IC50 Values, HUVEC): 1540 nM
IC50 ([2]; Homo sapiens, FIG. 2(C), read-out: IC50, HUVEC): 1540 nM
PCNA in NP-E fraction (free-form PCNA), time course (PCNA; PC-3, 0.5 μM, FIG. 10(A)): not significantly altered in cells treated by PCNA-I1 for up to 8 H but reduced in cells treated for 16 H
PCNA in NP-R fraction (chromatin-associated PCNA), time course (PCNA; PC-3, 0.5 μM, FIG. 10(A)): reduced in 1 to 2 H
Chromatin-associated and free form PCNA, concentration dependence (PCNA; PC-3, FIG. 10(B)): at concentration of 0.5 μM or lower mainly reduced the level of chromatin-associated PCNA and at concentration of 1 μM or higher led to a reduction of both the chromatin-associated and free form PCNA
Susceptibility of PC-3 cells relative to lymphocytes (PC-3 cells): approximately three times more susceptible than lymphocytes
IC50 (PC-3 cells; Homo sapiens, PC-3, Alamar blue assay): 482 nM
